# Results taken from patent publication US20230108906A1, “SUBSTITUTED BICYCLIC AND TRICYCLIC UREAS AND AMIDES, ANALOGUES THEREOF, AND METHODS USING SAME” (Arbutus Biopharma Corporation, priority 2019, published 2023).
# Test system: HBV rcDNA in HepDE19 cells
# Assay: HepDE19 assay with bDNA quantitation of HBV rcDNA
# Assay type: cell-based, hepatitis B virus (HBV)
# Conditions: Hepatitis B virus, HepDE19, 168 h, inhibition of rcDNA formation in HepDE19 cells (HepG2 derived), Tet-free medium, 7 day incubation, Quantigene 2.0 bDNA readout, top concentration 25 μM; read-out: DE-19bDNA EC50
# Summary of the method: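 HepDE19 cells (HepG2-derived, Tet-regulated HBV) switched to Tet-free medium, then treated 7 days at 37 °C with compound, 8-point titration from 25 μM, 0.5% DMSO. rcDNA quantified by bDNA with HBV probes; EC50/EC90 via 4-parameter fit. Viability (CC50) by CellTiter-Glo ATP on 5,000 cells/well after 4 days.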
row,SMILES,EC50
1,"CN(C(=O)Nc1ccc(Cl)c(C#N)c1)[C@@H]1COCc2[nH]c(=O)c3cc(F)c(F)cc3c21 [Compound 142, (S)-3-(4-Chloro-3-cyanophenyl)-1-(8,9-difluoro-6-oxo-1,4,5,6-tetrahydro-2H-pyrano[3,4-c]isoquinolin-1-yl)-1-methylurea]",30 nM
2,"CN(C(=O)Nc1ccc(F)c(Cl)c1)C1CCCc2[nH]c(=O)c3c(c21)COCC3 (stereo not shown) [Compound 80, 3-(3-Chloro-4-fluorophenyl)-1-methyl-1-(5-oxo-3,4,5,6,7,8,9,10-octahydro-1H-pyrano[4,3-c]quinolin-10-yl)urea]",2800 nM
3,"CN(C(=O)N1Cc2ccc(Cl)cc2C1)C1CNCc2[nH]c(=O)c3cc(F)c(F)cc3c21 (single isomer, unassigned) [Compound 226, 5-Chloro-N-(8,9-difluoro-6-oxo-1,2,3,4,5,6-hexahydrobenzo[c][1,7]naphthyridin-1-yl)-N-methylisoindoline-2-carboxamide]",21000 nM
4,"CN(C(=O)Nc1ccc(F)c(Cl)c1)C1COC(=O)c2[nH]c(=O)c3cc(F)c(F)cc3c21 (racemic) [Compound 152, 3-(3-Chloro-4-Fluorophenyl)-1-(8,9-difluoro-4,6-dioxo-1,4,5,6-tetrahydro-2H-pyrano[3,4-c]isoquinolin-1-yl)-1-methylurea]",20 nM
5,"CN(C(=O)Nc1ccc(F)c(Cl)c1)C1COCc2[nH]c(=O)c3ccsc3c21 (stereo not shown) [Compound 96, 3-(3-chloro-4-fluorophenyl)-1-methyl-1-(4-oxo-4,6,8,9-tetrahydro-5H-pyrano[3,4-b]thieno[2,3-d]pyridin-9-yl)urea]",80 nM
6,"CN(C(=O)Nc1ccc(F)c(C#N)c1)C1COCc2[nH]c(=O)c3cc(Cl)ccc3c21 (stereo not shown) [Compound 65, 1-(8-Chloro-6-oxo-1,4,5,6-tetrahydro-2H-pyrano[3,4-c]isoquinolin-1-yl)-3-(3-cyano-4-fluorophenyl)-1-methylurea]",80 nM
7,"CN(C(=O)Nc1ccc(F)c(F)c1)C1CCCc2[nH]c(=O)c3cc(F)ccc3c21 (stereo not shown) [Compound 32, 3-(3,4-Difluorophenyl)-1-(8-fluoro-6-oxo-1,2,3,4,5,6-hexahydrophenanthridin-1-yl)-1-methylurea]",110 nM
8,"CN(C(=O)Nc1ccc(F)c(C#N)c1)C1CS(=O)(=O)Cc2[nH]c(=O)c3cc(F)c(F)cc3c21 (single isomer, unassigned) [Compound 205, 3-(3-Cyano-4-fluorophenyl)-1-(8,9-difluoro-3,3-dioxido-6-oxo-1,4,5,6-tetrahydro-2H-thiopyrano[3,4-c]isoquinolin-1-yl)-1-methylurea]",7200 nM

# Same assay, conditions: inhibition of rcDNA formation in HepDE19 cells (HepG2 derived), Tet-free medium, 7 day incubation, Quantigene 2.0 bDNA readout, top concentration 25 μM; read-out: DE-19bDNA EC50
row,SMILES,EC50
1,"CN(C(=O)Nc1ccc(F)c(Cl)c1)C1CCCc2[nH]c(=O)c3c(c21)CCCC3 (single isomer, unassigned) [Compound 46, 3-(3-Chloro-4-fluorophenyl)-1-methyl-1-(6-oxo-1,2,3,4,5,6,7,8,9,10-decahydrophenanthridin-1-yl)urea]",1200 nM
2,"CN(C(=O)Nc1ccc(F)c(Cl)c1)C1CNCc2[nH]c(=O)c3cc(F)c(F)cc3c21 (single isomer, unassigned) [Compound 150, 3-(3-Chloro-4-fluorophenyl)-1-(8,9-difluoro-6-oxo-1,2,3,4,5,6-hexahydrobenzo[c][1,7]naphthyridin-1-yl)-1-methylurea]",10 nM
3,"CN(C(=O)Nc1ccc(F)c(Cl)c1)C1CCCc2[nH]c(=O)c3cc(F)c(F)cc3c21 (stereo not shown) [Compound 39, 3-(3-Chloro-4-fluorophenyl)-1-(8,9-difluoro-6-oxo-1,2,3,4,5,6-hexahydrophenanthridin-1-yl)-1-methylurea]",10 nM
4,"CN(C(=O)Nc1ccc(F)c(F)c1)C1COCc2[nH]c(=O)c3c(c21)COCC3 (single isomer, unassigned) [Compound 86, 3-(3,4-Difluorophenyl)-1-methyl-1-(5-oxo-1,3,4,5,6,7,9,10-octahydrodipyrano[3,4-b:3′,4′-d]pyridin-10-yl)urea]",≥ 25000 nM
5,"CN(C(=O)Nc1ccc(F)cc1)C1COCc2[nH]c(=O)c3cc(F)c(F)cc3c21 (single isomer, unassigned) [Compound 104, 1-(8,9-Difluoro-6-oxo-1,4,5,6-tetrahydro-2H-pyrano[3,4-c]isoquinolin-1-yl)-3-(4-fluorophenyl)-1-methylurea]",20 nM
6,"CN(C(=O)Nc1ccc(F)c(C#N)c1)C1C[S+]([O-])Cc2[nH]c(=O)c3cc(F)c(F)cc3c21 (single isomer, unassigned) [Compound 214, 3-(3-Cyano-4-fluorophenyl)-1-(8,9-difluoro-3-oxido-6-oxo-1,4,5,6-tetrahydro-2H-thiopyrano[3,4-c]isoquinolin-1-yl)-1-methylurea]",15000 nM
7,"CN(C(=O)Nc1ccc(F)c(F)c1)C1CNCc2[nH]c(=O)c3cc(F)c(F)cc3c21 (single isomer, unassigned) [Compound 191, 1-(8,9-Difluoro-6-oxo-1,2,3,4,5,6-hexahydrobenzo[c][1,7]naphthyridin-1-yl)-3-(3,4-difluorophenyl)-1-methylurea]",3000 nM
8,"NS(=O)(=O)CCN(C(=O)Nc1ccc(F)c(Cl)c1)C1COCc2[nH]c(=O)c3cc(F)c(F)cc3c21 (single isomer, unassigned) [Compound 136, 2-(3-(3-Chloro-4-fluorophenyl)-1-(8,9-difluoro-6-oxo-1,4,5,6-tetrahydro-2H-pyrano[3,4-c]isoquinolin-1-yl)ureido)ethane-1-sulfonamide]",2900 nM
9,"CC(C)CN(C(=O)Nc1ccc(F)c(C#N)c1)C1COCc2[nH]c(=O)c3cc(F)c(F)cc3c21 (single isomer, unassigned) [Compound 122, 3-(3-Cyano-4-fluorophenyl)-1-(8,9-difluoro-6-oxo-1,4,5,6-tetrahydro-2H-pyrano[3,4-c]isoquinolin-1-yl)-1-isobutylurea]",120 nM
10,"CN(C(=O)Nc1ccc(F)c(F)c1)C1CCCc2[nH]c(=O)c3c(c21)COCC3 (single isomer, unassigned) [Compound 81, 3-(3,4-Difluorophenyl)-1-methyl-1-(5-oxo-3,4,5,6,7,8,9,10-octahydro-1H-pyrano[4,3-c]quinolin-10-yl)urea]",≥ 25000 nM
11,"CS(=O)(=O)CCN(C(=O)Nc1ccc(F)c(Cl)c1)C1COCc2[nH]c(=O)c3cc(F)c(F)cc3c21 (single isomer, unassigned) [Compound 139, 3-(3-Chloro-4-fluorophenyl)-1-(8,9-difluoro-6-oxo-1,4,5,6-tetrahydro-2H-pyrano[3,4-c]isoquinolin-1-yl)-1-(2-(methylsulfonyl)ethyl)urea]",600 nM
12,"CN(C(=O)Nc1ccc(F)c(Cl)c1)C1CNCc2[nH]c(=O)c3cc(F)c(F)cc3c21 (single isomer, unassigned) [Compound 149, 3-(3-Chloro-4-fluorophenyl)-1-(8,9-difluoro-6-oxo-1,2,3,4,5,6-hexahydrobenzo[c][1,7]naphthyridin-1-yl)-1-methylurea]",250 nM
13,"CN(C(=O)Nc1ccc(F)c(Cl)c1)C1CN(CCO)Cc2[nH]c(=O)c3cc(F)ccc3c21 (single isomer, unassigned) [Compound 170, 3-(3-Chloro-4-fluorophenyl)-1-(8-fluoro-3-(2-hydroxyethyl)-6-oxo-1,2,3,4,5,6-hexahydrobenzo[c][1,7]naphthyridin-1-yl)-1-methylurea]",3100 nM
14,"CN1Cc2[nH]c(=O)c3cc(F)c(F)cc3c2C(N(C)C(=O)Nc2ccc(F)c(Cl)c2)C1 (single isomer, unassigned) [Compound 168, 3-(3-Chloro-4-fluorophenyl)-1-(8,9-difluoro-3-methyl-6-oxo-1,2,3,4,5,6-hexahydrobenzo[c][1,7]naphthyridin-1-yl)-1-methylurea]",180 nM
